How the values were obtained:
[1] = test system: self-induced photosensitive seizures; settings: cited from earlier work
[2] = test system: seizures in Dravet Syndrome patients; test: Long-term fenfluramine and valproate treatment of Dravet Syndrome patients (Ceulemans et al. data); assay type: in vivo, human
Text: The following table provides results based on the data presented in Ceulemans et al., Epilepsia (2012) 53(7):1131-1139.

heart valve = test: Echocardiography monitoring for heart valve defects in subjects treated with fenfluramine; assay type: in vivo, human
Text: The subjects treated with fenfluramine were monitored using echocardiography for possible heart valve defects.

refractory epilepsy = settings: children with refractory epilepsy; dose of 0.5 to 1 mg/kg/day; cited from earlier work
[3] = test system: seizures in Dravet Syndrome patients; settings: Combined STICLO-France and Italy; stiripentol and either valproate or clobazam; two months; cited from earlier work
[4] = fenfluramine and valproate, average daily dose 0.34 mg/kg/day for between 1 and 22 years, 0.34 mg/kg/day

Row | SMILES | Response of self-induced photosensitive seizures ([1]; four cases, Aicardi and Gastaut) | Effect on pattern sensitivity-induced seizures resistant to anticonvulsive treatment ([1]; one child, Clemens 1988) | Types of seizures reduced ([2]; Dravet Syndrome patients, not only photosensitive or self-induced seizures) | >50% Reduction in Seizures (responders) [2, 4] | Seizure-free Patients [2, 4] | Heart valve defects by echocardiography (heart valve) | Effect on number of seizures (refractory epilepsy) | Responders - >50% Reduction in the Number of Seizures [3] | Seizure Free Patients [3]
1 | CCNC(C)Cc1cccc(C(F)(F)F)c1 (stereo not drawn) [Fenfluramine, 3-trifluoromethyl-N-ethylamphetamine] | responded to treatment | successfully terminated these self-induced seizures | effectively reduced the incidence of all types of seizures | 75% | 66.6% | No clinically relevant defects were identified | reduction in the number of seizures | – | –
2 | CC(C)(C)C(O)/C=C/c1ccc2c(c1)OCO2 (stereo not drawn) [Stiripentol] | – | – | – | – | – | – | – | 69.7% | 38.7%

Source: patent US9549909B2, “Method for the treatment of dravet syndrome” (KATHOLIEKE UNIVERSITEIT LEUVEN, priority 2013, dated 2017)
